Legend:
rat ventricular myocytes = assay: Action potential recording on isolated rat ventricular myocytes; type: cell-based; conditions: for APA: control 112.5 ± 6.3; for Vmax: control 226.9 ± 12.4; for RMP: control −80.1 ± 2.7
Description: (§1) The Tyrode’s solution contained (mM): 126 NaCl, 5.4 KCl, 1.8 CaCl2, 1 MgCl2, 0.33 NaH2PO4, 10 HEPES and 10 glucose, pH 7.4 (adjusted with NaOH). The Ca^2+-free Tyrode’s solution was prepared by removing CaCl2 from the Tyrode’s solution. The Kreb’s solution used for cell storage contained (mM): 70 glutamic acid, 30 KCl, 15 taurine, 0.5 MgCl2, 10 KH2PO4, 0.5 EGTA, 10 HEPES, 10 glucose, and 1% albumin, pH 7.4 (adjusted with KOH). The enzyme solution used for the rat cardiomyocyte isolation contained 0.08 g/L collagenase (type II) and 1.0 g/L BSA in Kreb’s solution. For action potential recording on cardiomyocyte, the pipette solution contained (mM): 100 potassium aspartate, 30 KCl, 1 MgCl2, 5 Mg-ATP, 5 EGTA, 5 HEPES, pH 7.3 (adjusted with KOH); the Tyrode’s solution was used as the standard bath solution. For whole-cell recording of IKs on myocytes, the pipette solution contained (mM): 125 potassium aspartate, 20 KCl, 1 MgCl2, 5 Mg-ATP, 10 EGTA, 5 HEPES, pH 7.3 (adjusted with KOH); the bath solution contained (mM): 132 NaCl, 4 KCl, 1.8 CaCl2, 1.2 MgCl2, 10 HEPES, 5 glucose, pH 7.4 (adjusted with NaOH). 3 μM nifedipine and 5 μM E-4031 were used to block the calcium current and IKr, respectively. For whole-cell recording on HEK-293 cells, the pipette solution contained (mM): 140 KCl, 2 MgCl2, 10 HEPES, 0.1 EGTA, 4 K2-ATP, pH 7.3 (adjusted with KOH); the bath solution contained (mM): 120 NaCl, 5 KCl, 1.5 CaCl2, 1 MgCl2, 10 HEPES, 10 glucose, pH 7.4 (adjusted with NaOH). For single-channel recording, the pipette solution (extracellular) contained (mM): 145 KCl, 10 HEPES, 10 glucose, pH 7.4 (adjusted with KOH); the bath solution (intracellular) contained (mM): 145 KCl, 1.2 MgCl2, 10 HEPES, 0.1 EGTA, pH 7.38 (adjusted with KOH).
Single ventricular myocytes were isolated from adult rat hearts via enzymatic dissociation as previously described. Briefly, the rats were anesthetised with 25% chloral hydrate (0.1 g/100 g). Their hearts were excised rapidly and retrogradely perfused on a Langendorff apparatus with a Ca^2+-free Tyrode’s solution for 5 min before the perfusate was switched to an enzymatic solution for 10–20 min. The perfusate was finally changed to Kreb’s solution for 5 min. The perfusates were bubbled with 95% O2 + 5% CO2 and maintained at 37 °C. The ventricles w ere cut into small chunks and gently agitated in Kreb’s solution. The cells were filtered through nylon mesh (pore size 200 μm) and stored in Kreb’s solution at 4 °C.
Action potentials were elicited at 1 Hz by 2 ms current pulses applied using the patch pipette.
Cell suspensions were transferred into a chamber on the stage of a Nikon Eclipse Ti inverted microscope (Tokyo, Japan). The whole-cell recordings were performed using isolated single ventricular myocytes. Patch electrodes were pulled from a horizontal microelectrode puller (P-1000, Sutter Instrument Co, USA) and fire polished to final tip resistance of 4.0–8.0 MΩ when filled with internal solutions. Signals were amplified with an Axopatch 200B amplifier (Axon Instruments, USA) and filtered at 1 kHz. The pCLAMP 9.0 software was used to generate current and voltage clamp protocols, acquire data, and analyse the current traces. The whole-cell series resistance was compensated to more than 80%. All of the experiments were performed at room temperature (22 ± 1 °C). The whole-cell IK1 was elicited by a ramp voltage protocol from −140 to + 40 mV in 1 s, or at a 0 mV holding potential to test potentials from −140 to + 40 mV in 10 mV increments. The IK1 was calculated as the difference between the peak inward current and the holding current level. The whole-cell Kv7.1/IKs were elicited from a −30 mV holding potential to test potentials from −80 to + 40 mV in 10 mV increments.

Kv7.1 = target: T1, Kv7.1 (Homo sapiens, UniProt P51787); assay: Single-channel inside-out patch clamp recording of Kv7.1; type: cell-based; conditions: puerarin 100 μM, inside-out, intracellular side
T1 construct: expressed in transfected cells; host or cells: HEK293
Description: as §1, with “3 μM nifedipine and 5 μM E-4031 were used to block the calcium current and IKr, respectively. For whole-cell recording on HEK-293 cells, the pipette solution contained (mM): 140 KCl, 2 MgCl2, 10 HEPES, 0.1 EGTA, 4 K2-ATP, pH 7.3 (adjusted with KOH); the bath solution contained (mM): 120 NaCl, 5 KCl, 1.5 CaCl2, 1 MgCl2, 10 HEPES, 10 glucose, pH 7.4 (adjusted with NaOH). For single-channel recording, the pipette solution (extracellular) contained (mM): 145 KCl, 10 HEPES, 10 glucose, pH 7.4 (adjusted with KOH); the bath solution (intracellular) contained (mM): 145 KCl, 1.2 MgCl2, 10 HEPES, 0.1 EGTA, pH 7.38 (adjusted with KOH).” left out
Single-channel activity was recorded at a series of holding levels ranging from 10 mV of 50 mV. […] Single-channel events were listed and analysed by pclampfit 9.0 (single-channel search-in-analyse function). […]

O=c1c(-c2ccc(O)cc2)coc2c([C@@H]3O[C@H](CO)[C@@H](O)[C@H](O)[C@H]3O)c(O)ccc12 [Puerarin, 8-c-glucoside of daidzein]
APD50 (rat ventricular myocytes; puerarin 0.01 mM, control 71.8 ± 11.8): 86.9 ± 10.7 ms
APA (rat ventricular myocytes; puerarin 0.01 mM): 109.8 ± 8.5 mV
APD90 (rat ventricular myocytes; puerarin 0.01 mM, control 164.6 ± 21.4): 188.3 ± 11.5 ms
Vmax (rat ventricular myocytes; puerarin 0.01 mM): 217.5 ± 10.7 V/s
RMP (rat ventricular myocytes; puerarin 0.01 mM): −80.5 ± 2.2 mV
effect on RMP, APA and Vmax (rat ventricular myocytes; puerarin 100 μM): not affected
effect on isoproterenol-reduced APD (APD50, APD90) (rat ventricular myocytes; puerarin 100 μM with isoproterenol 10 nM): significantly offseted the reduced effect of isoproterenol
APD50 (rat ventricular myocytes; puerarin 100 μM, from (71.8 ± 11.8) mS): 100.5 ± 14.1 mS
APD90 (rat ventricular myocytes; puerarin 100 μM, from (164.6 ± 21.4) mS): 221.6 ± 25.7 mS
APD50 (rat ventricular myocytes; puerarin 0.1 mM, control 71.8 ± 11.8): 100.5 ± 14.1 ms
APA (rat ventricular myocytes; puerarin 0.1 mM): 114.2 ± 4.9 mV
APD90 (rat ventricular myocytes; puerarin 0.1 mM, control 164.6 ± 21.4): 221.6 ± 25.7 ms
Vmax (rat ventricular myocytes; puerarin 0.1 mM): 242.1 ± 13.8 V/s
RMP (rat ventricular myocytes; puerarin 0.1 mM): −80.3 ± 1.6 mV
APD50 (rat ventricular myocytes; puerarin 1 mM, control 71.8 ± 11.8): 123.6 ± 25.4 ms
APA (rat ventricular myocytes; puerarin 1 mM): 115.9 ± 6.2 mV
APD90 (rat ventricular myocytes; puerarin 1 mM, control 164.6 ± 21.4): 278.7 ± 28.2 ms
Vmax (rat ventricular myocytes; puerarin 1 mM): 236.1 ± 15.9 V/s
RMP (rat ventricular myocytes; puerarin 1 mM): −79.7 ± 1.5 mV
APD50 (rat ventricular myocytes; puerarin 10 mM, control 71.8 ± 11.8): 131.4 ± 19.6 ms
APA (rat ventricular myocytes; puerarin 10 mM): 112.6 ± 4.7 mV
APD90 (rat ventricular myocytes; puerarin 10 mM, control 164.6 ± 21.4): 330.1 ± 22.3 ms
Vmax (rat ventricular myocytes; puerarin 10 mM): 238.4 ± 11.5 V/s
RMP (rat ventricular myocytes; puerarin 10 mM): −75.3 ± 2.4 mV
APD50 (rat ventricular myocytes; puerarin 100 mM, control 71.8 ± 11.8): 146.9 ± 21.8 ms
APA (rat ventricular myocytes; puerarin 100 mM): 113.8 ± 5.1 mV
APD90 (rat ventricular myocytes; puerarin 100 mM, control 164.6 ± 21.4): 415.6 ± 28.4 ms
Vmax (rat ventricular myocytes; puerarin 100 mM): 240.6 ± 12.1 V/s
RMP (rat ventricular myocytes; puerarin 100 mM): −74.7 ± 2.6 mV
APD50 (rat ventricular myocytes; puerarin 200 mM, control 71.8 ± 11.8): 162.3 ± 23.5 ms
APD90 (rat ventricular myocytes; puerarin 200 mM, control 164.6 ± 21.4): 439.5 ± 29.6 ms
RMP (rat ventricular myocytes; puerarin 200 mM): −73.5 ± 2.1 mV
APA (rat ventricular myocytes; puerarin): 111.7 ± 5.6 mV
Vmax (rat ventricular myocytes; puerarin): 237.8 ± 10.4 V/s
open probability of Kv7.1 channel (Kv7.1): significantly reduced
